This passage reports IC50 results from patent publication US10806785B2, “Immunomodulator compounds and methods of use” (Incyte Corporation, priority 2016, dated 2020).

SMILES strings stand for the structures. Bounds are passed on as bounds.

PD-1/PD-L1, sequence (Q9NZQ7 19-238): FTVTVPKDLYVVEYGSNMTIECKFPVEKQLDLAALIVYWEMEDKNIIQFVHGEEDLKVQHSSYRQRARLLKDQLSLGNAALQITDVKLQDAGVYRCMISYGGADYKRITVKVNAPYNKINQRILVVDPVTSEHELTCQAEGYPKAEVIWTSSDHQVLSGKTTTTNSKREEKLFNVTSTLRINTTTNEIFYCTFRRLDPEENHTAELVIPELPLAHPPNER

This test addresses PD-1/PD-L1 (Homo sapiens (Human), UniProt Q9NZQ7). Put plainly: PD-1/PD-L1 binding assay (HTRF). In short, it runs like this: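 Fc-tagged human PD-1 (25-167) and His-tagged PD-L1 (19-238), listed as […] and 10 nM final, preincubated 40 min with inhibitors in PBS pH 7.4, 0.05% Tween-20, 0.1% BSA, 1% DMSO, 25 °C. Eu anti-IgG/APC anti-His added, 60 min, 665/620 nm HTRF ratio; IC50 fitted from percent control activity.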
On the technique in general: TR-FRET usually uses a lanthanide donor and a delayed reading to cut background.
Take `Cc1c(NC(=O)c2nc3c(n2C)CCN(C[C@H](C)O)C3)cccc1-c1cccc(NC(=O)c2nc3c(n2C)CCN(C2CCN(S(C)(=O)=O)CC2)C3)c1Cl` [Example 43, (S)—N-(2′-chloro-2-methyl-3′-(1-methyl-5-(1-(methylsulfonyl)piperidin-4-yl)-4,5,6,7-tetrahydro-1H-imidazo[4,5-c]pyridine-2-carboxamido)biphenyl-3-yl)-5-(2-hydroxypropyl)-1-methyl-4,5,6,7-tetrahydro-1H-imidazo[4,5-c]pyridine-2-carboxamide]: the IC50 (as a rule, the concentration that gives 50% inhibition) was not above 10 nM.
Consider `Cc1c(NC(=O)c2nc3c(n2C)CCN(C[C@H](C)O)C3)cccc1-c1cccc(NC(=O)c2nc3c(n2C)CCN(C2CCC2)C3)c1Cl` [Example 44, (S)—N-(2-chloro-3′-(5-(2-hydroxypropyl)-1-methyl-4,5,6,7-tetrahydro-1H-imidazo[4,5-c]pyridine-2-carboxamido)-2′-methylbiphenyl-3-yl)-5-cyclobutyl-1-methyl-4,5,6,7-tetrahydro-1H-imidazo[4,5-c]pyridine-2-carboxamide], for which the IC50 was not above 10 nM.
To `Cc1c(NC(=O)c2nc3c(n2C)CCN(C[C@H](C)O)C3)cccc1-c1cccc(NC(=O)c2nc3c(n2C)CCN(C(C)C)C3)c1Cl` [Example 45, (S)—N-(2-chloro-3′-(5-(2-hydroxypropyl)-1-methyl-4,5,6,7-tetrahydro-1H-imidazo[4,5-c]pyridine-2-carboxamido)-2′-methylbiphenyl-3-yl)-5-isopropyl-1-methyl-4,5,6,7-tetrahydro-1H-imidazo[4,5-c]pyridine-2-carboxamide] belongs not above 10 nM; to `Cc1c(NC(=O)c2nc3c(n2C)CCN(C[C@H](C)O)C3)cccc1-c1cccc(NC(=O)c2nc3c(n2C)CCN(CC2CC2)C3)c1Cl` [Example 46, (S)—N-(2-chloro-3′-(5-(2-hydroxypropyl)-1-methyl-4,5,6,7-tetrahydro-1H-imidazo[4,5-c]pyridine-2-carboxamido)-2′-methylbiphenyl-3-yl)-5-(cyclopropylmethyl)-1-methyl-4,5,6,7-tetrahydro-1H-imidazo[4,5-c]pyridine-2-carboxamide], not above 10 nM; to `Cc1c(NC(=O)c2nc3c(n2C)CCN(C[C@H](C)O)C3)cccc1-c1cccc(NC(=O)c2nc3c(n2C)CCN(C2CCOCC2)C3)c1Cl` [Example 47, (S)—N-(2′-chloro-2-methyl-3′-(1-methyl-5-(tetrahydro-2H-pyran-4-yl)-4,5,6,7-tetrahydro-1H-imidazo[4,5-c]pyridine-2-carboxamido)biphenyl-3-yl)-5-(2-hydroxypropyl)-1-methyl-4,5,6,7-tetrahydro-1H-imidazo[4,5-c]pyridine-2-carboxamide], not above 10 nM.
In the case of `Cc1c(NC(=O)c2cc(CN3CC[C@@H](O)C3)cn(C)c2=O)cccc1-c1cccc(NC(=O)c2nc3c(n2C)CCN(C)C3)c1Cl` [Example 48, (R)—N-(2-chloro-3′-(5-((3-hydroxypyrrolidin-1-yl)methyl)-1-methyl-2-oxo-1,2-dihydropyridine-3-carboxamido)-2′-methylbiphenyl-3-yl)-1,5-dimethyl-4,5,6,7-tetrahydro-1H-imidazo[4,5-c]pyridine-2-carboxamide], the IC50 is not above 10 nM.
The molecule `Cc1c(NC(=O)c2cc(CN3CC[C@@H](C(=O)O)C3)cn(C)c2=O)cccc1-c1cccc(NC(=O)c2nc3c(n2C)CCN(C)C3)c1Cl` [Example 49, (R)-1-((5-(2′-chloro-3′-(1,5-dimethyl-4,5,6,7-tetrahydro-1H-imidazo[4,5-c]pyridine-2-carboxamido)-2-methylbiphenyl-3-ylcarbamoyl)-1-methyl-6-oxo-1,6-dihydropyridin-3-yl)methyl)pyrrolidine-3-carboxylic acid] gave an IC50 not above 10 nM.
To `Cc1c(NC(=O)c2cc(CN3CCCC3)cn(C)c2=O)cccc1-c1cccc(NC(=O)c2nc3c(n2C)CCN(C)C3)c1Cl` [Example 50, N-(2-chloro-2′-methyl-3′-(1-methyl-2-oxo-5-(pyrrolidin-1-ylmethyl)-1,2-dihydropyridine-3-carboxamido)biphenyl-3-yl)-1,5-dimethyl-4,5,6,7-tetrahydro-1H-imidazo[4,5-c]pyridine-2-carboxamide] belongs not above 10 nM.
Regarding `Cc1c(NC(=O)c2cc(CN3CC[C@@H](O)C3)cn(C)c2=O)cccc1-c1cccc(NC(=O)c2nc3c(n2C)CCN(C[C@H](C)O)C3)c1Cl` [Example 51, N-(2-chloro-3′-(5-(((R)-3-hydroxypyrrolidin-1-yl)methyl)-1-methyl-2-oxo-1,2-dihydropyridine-3-carboxamido)-2′-methylbiphenyl-3-yl)-5-((S)-2-hydroxypropyl)-1-methyl-4,5,6,7-tetrahydro-1H-imidazo[4,5-c]pyridine-2-carboxamide], the IC50 is not above 10 nM.
To `Cc1c(NC(=O)c2cc(CN3CCCC3)cn(C)c2=O)cccc1-c1cccc(NC(=O)c2nc3c(n2C)CCN(C[C@H](C)O)C3)c1Cl` [Example 52, (S)—N-(2-chloro-2′-methyl-3′-(1-methyl-2-oxo-5-(pyrrolidin-1-ylmethyl)-1,2-dihydropyridine-3-carboxamido)biphenyl-3-yl)-5-(2-hydroxypropyl)-1-methyl-4,5,6,7-tetrahydro-1H-imidazo[4,5-c]pyridine-2-carboxamide] belongs not above 10 nM; to `Cc1c(-c2nc3c(s2)CN(C(=O)CN(C)C)C3)cccc1-c1cccc(NC(=O)c2nc3c(n2C)CCN(C)C3)c1Cl` [Example 53, N-(2-chloro-3′-(5-(2-(dimethylamino)acetyl)-5,6-dihydro-4H-pyrrolo[3,4-d]thiazol-2-yl)-2′-methylbiphenyl-3-yl)-1,5-dimethyl-4,5,6,7-tetrahydro-1H-imidazo[4,5-c]pyridine-2-carboxamide], not above 10 nM; to `Cc1c(COc2cc(OCc3cncc(C#N)c3)c(CN3CCCC[C@H]3C(=O)O)cc2Cl)cccc1-c1cccc(NC(=O)c2nc3c(n2C)CCN(C)C3)c1Cl` [Example 54, (S)-1-(5-chloro-4-((2′-chloro-3′-(1,5-dimethyl-4,5,6,7-tetrahydro-1H-imidazo[4,5-c]pyridine-2-carboxamido)-2-methyl-[1,1′-biphenyl]-3-yl)methoxy)-2-((5-cyanopyridin-3-yl)methoxy)benzyl)piperidine-2-carboxylic acid], not above 10 nM.
The molecule `CN1CCc2c(nc(C(=O)Nc3cccc(-c4cccc(NC(=O)c5nc6c(n5C)CCN(C[C@H]5CC[C@H](C(=O)O)CC5)C6)c4Cl)c3Cl)n2C)C1` [Example 60, trans-4-((2-(2,2′-dichloro-3′-(1,5-dimethyl-4,5,6,7-tetrahydro-1H-imidazo[4,5-c]pyridine-2-carboxamido)biphenyl-3-ylcarbamoyl)-1-methyl-6,7-dihydro-1H-imidazo[4,5-c]pyridin-5(4H)-yl)methyl)cyclohexane-1-carboxylic acid] had an IC50 not above 10 nM.
With `Cn1c(C(=O)Nc2cccc(-c3cccc(NC(=O)c4nc5c(n4C)CCN(C[C@H]4CC[C@H](C(=O)O)CC4)C5)c3Cl)c2Cl)nc2c1CCNC2` [Example 61, trans-4-((2-(2,2′-dichloro-3′-(1-methyl-4,5,6,7-tetrahydro-1H-imidazo[4,5-c]pyridine-2-carboxamido)biphenyl-3-ylcarbamoyl)-1-methyl-6,7-dihydro-1H-imidazo[4,5-c]pyridin-5(4H)-yl)methyl)cyclohexane-1-carboxylic acid], the IC50 was not above 10 nM.
With `CCN1CCc2c(nc(C(=O)Nc3cccc(-c4cccc(NC(=O)c5nc6c(n5C)CCN(C[C@H]5CC[C@H](C(=O)O)CC5)C6)c4Cl)c3Cl)n2C)C1` [Example 62, trans-4-((2-(2,2′-dichloro-3′-(5-ethyl-1-methyl-4,5,6,7-tetrahydro-1H-imidazo[4,5-c]pyridine-2-carboxamido)biphenyl-3-ylcarbamoyl)-1-methyl-6,7-dihydro-1H-imidazo[4,5-c]pyridin-5(4H)-yl)methyl)cyclohexane-1-carboxylic acid] the figure was not above 10 nM; with `Cn1c(C(=O)Nc2cccc(-c3cccc(NC(=O)c4nc5c(n4C)CCN(C[C@H]4CC[C@H](C(=O)O)CC4)C5)c3Cl)c2Cl)nc2c1CCN(CC1CC1)C2` [Example 63, trans-4-((2-(2,2′-dichloro-3′-(5-(cyclopropylmethyl)-1-methyl-4,5,6,7-tetrahydro-1H-imidazo[4,5-c]pyridine-2-carboxamido)biphenyl-3-ylcarbamoyl)-1-methyl-6,7-dihydro-1H-imidazo[4,5-c]pyridin-5(4H)-yl)methyl)cyclohexane-1-carboxylic acid], not above 10 nM; with `Cn1c(C(=O)Nc2cccc(-c3cccc(NC(=O)c4nc5c(n4C)CCN(C4CCOCC4)C5)c3Cl)c2Cl)nc2c1CCN(C[C@H]1CC[C@H](C(=O)O)CC1)C2` [Example 64, trans-4-((2-(2,2′-dichloro-3′-(1-methyl-5-(tetrahydro-2H-pyran-4-yl)-4,5,6,7-tetrahydro-1H-imidazo[4,5-c]pyridine-2-carboxamido)biphenyl-3-ylcarbamoyl)-1-methyl-6,7-dihydro-1H-imidazo[4,5-c]pyridin-5(4H)-yl)methyl)cyclohexane-1-carboxylic acid], not above 10 nM.
`Cn1c(C(=O)Nc2cccc(-c3cccc(NC(=O)c4nc5c(n4C)CCN(C[C@H]4CC[C@H](C(=O)O)CC4)C5)c3Cl)c2Cl)nc2c1CCN(CCO)C2` [Example 65, trans-4-((2-((2,2′-dichloro-3′-(5-(2-hydroxyethyl)-1-methyl-4,5,6,7-tetrahydro-1H-imidazo[4,5-c]pyridine-2-carboxamido)-[1,1′-biphenyl]-3-yl)carbamoyl)-1-methyl-1,4,6,7-tetrahydro-5H-imidazo[4,5-c]pyridin-5-yl)methyl)cyclohexane-1-carboxylic acid] came in with an IC50 not above 10 nM.
